Experimental data as given in patent publication US10604514B2, “6-(5-membered heteroaryl)isoquinolin-3-yl carboxamides and preparation and use thereof” (Samumed, LLC, priority 2017, dated 2020).
Like-named read-outs stand apart in the source and are kept apart here. Each block holds one compound with its values, some of them ahead of it.

How the values were obtained:
[1] = system: Wnt activity (Sp5-Luc reporter in SW480 colon carcinoma cells); assay: Wnt activity screening assay (Sp5-Luc reporter gene assay); type: cell-based, human; settings: Homo sapiens; for EC50: Sp5-Luc reporter, SW480 cells, 36 to 48 hours; for inhibition at 10 µM: SW480, read-out: percent inhibition at 10 μM
Procedure, shortened: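 SW480 cells stably carrying an Sp5 promoter (eight TCF/LEF sites)-firefly luciferase reporter were plated in DMEM with 1% FBS and treated with a 10-point, 1:3 dilution series from 10 μM (0.1% DMSO) for 36 to 48 h at 37° C. Luminescence was normalized to DMSO controls, and EC50 came from four-parameter nonlinear regression.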

[2] = system: Tau phosphorylation at Ser396 (pSer396), SH-SY5Y cells; assay: Tau phosphorylation at Ser396 (pSer396) in SH-SY5Y cells, ELISA/western blot; type: cell-based, human; settings: Homo sapiens; SH-SY5Y cells, overnight (16-18 h); read-out: pSer396 Tau EC50;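 also: cell lysates probed for reduced Tau pSer396 via ELISA (colorimetric) or western blot (chemiluminescence), both with one shared pSer396 antibody, EC50 for lowering phosphorylation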
Method: Two days before treatment, cells were seeded onto 96 well plates at 5×10^4 cells/well.
Wells were visually checked for cell death or change in morphology and supernatants were tested for cytotoxicity by measurement of lactate dehydrogenase release (LDH, CytoToxOne kit, Promega) if necessary.
Cells were lysed with RIPA buffer complemented with phosphatase and protease inhibitors then lysates were spun down at 12,000 g for 10 min to remove any cellular debris. Lysates are then either directly tested for pSer396 by ELISA (Life Technology, Kit KHB7031) or loaded on NuPage Bis-Tris gels for western blot analysis. Colorimetric detection of ELISA signal is performed by Cytation3 plate reader (Biotek) and the chemiluminescence signal for HRP-linked antibodies used in western blotting is detected using a Carestream Image Station. The same pSer396 antibody is used for detection of pTau in both assays.

IL-6 = IL-6 inhibition in LPS-stimulated human peripheral blood mononuclear cells (HTRF); type: cell-based; settings: Homo sapiens, PBMC; for inhibition at 10 µM: read-out: percent value in parentheses below EC50 >10; for EC50: IL-6, LPS-stimulated huPBMCs, HTRF
Procedure, shortened: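 Fresh human PBMCs (5000 cells/well, 1% FBS RPMI) preincubated with compound (10-point 1:3 series from 10 μM, 0.25% DMSO) 2 h at 37 °C, then stimulated with 50 ng/mL E. coli LPS for 22 h. IL-6 by HTRF 665/620 ratio; DMSO-normalized, EC50 from 4-parameter fit.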

[3] = system: SW480 colon carcinoma cells; assay: Cell viability assay (CellTiter-Glo) in SW480 cells; type: cell-based, human; settings: Homo sapiens; for EC50: 96 h, cell viability, SW480 cells, four days, CellTiter-Glo; for inhibition at 10 µM: SW480, read-out: percent inhibition at 10 μM;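 as to all read-outs here: SW480 cells stably carrying an Sp5-luciferase TCF/LEF reporter, luminescent ATP signal as viability measure, DMSO-treated cells as control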
Method: Representative compounds were screened using the assay procedure to assess the effect on cell viability as described below.
SW480 colon carcinoma cells were transduced with a lentiviral vector expressing luciferase with a human Sp5 promoter consisting of a sequence of eight TCF/LEF binding sites. SW480 cells stably expressing the Sp5-Luc reporter gene and a hygromycin resistance gene were selected by treatment with 150 μg/mL of hygromycin for 7 days. These stably transduced SW480 cells were expanded in cell culture and used for all further screening activities. Each compound was dissolved in DMSO as a 10 mM stock and used to prepare compound source plates.
For the Cell Viability Assays, the cells were plated at 2,000 cells/well in 384-well plates with a DMEM medium containing 1% fetal bovine serum, and 1% Penicillin-Streptomycin and incubated for four days hours at 37° C. and 5% CO2. Eight replicates of DMSO-treated cells served as controls and cells treated with compound were performed in duplicate.
After incubation, 10 μL of CellTiter-Glo (Promega) was added to each well allowed to incubate for approximately 12 minutes.
Dose-response curves were generated and EC50 concentration values were calculated using non-linear regression curve fit in the GraphPad Prism (San Diego, Calif.) or Dotmatics' Studies Software (Bishops Stortford, UK).

GSK3β kinase = GSK3β kinase (Homo sapiens (Human), UniProt P49841); assay: GSK3β kinase assay (Ser/Thr 09 peptide Z-lyte, FRET); type: biochemical; settings: method text calls the value IC50;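 also: Coumarin/fluorescein emission ratio converted to percent phosphorylation against unphosphorylated (0%) and phosphorylated (100%) controls, 1 h compound incubation at room temperature, 11-point threefold dilutions from 10 µM, run in duplicate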
DYRK1A kinase = DYRK1A kinase (Homo sapiens (Human), UniProt Q13627); assay: DYRK1A kinase assay (Ser/Thr 18 peptide Z-lyte, FRET)
Method: Each compound was dissolved in DMSO as a 10 mM stock and used to prepare compound source plates.
This is a non-radioactive assay using fluorescence resonance energy transfer (FRET) between coumarin and fluorescein to detect kinase activity which is represented as a ratio of coumarin emission/fluorescein emission.
The mixture was allowed to incubate with the representative compounds for one hour at room temperature. All reactions were performed in duplicate. Unphosphorylated (“0% Control”) and phosphorylated (“100% control”) forms of Ser/Thr 18 served as control reactions. Additionally, an 11-point dose-response curve of Staurosporine (1 uM top) was run to serve as a positive compound control.
After incubation, Development Reagent A was diluted in Development Buffer then added to the reaction and allowed to further incubate for one hour at room temperature.
The percent phosphorylation was then calculated using the following formula: [1−((Em ratio×F100%)−C100%)/((C0%−C100%)+(Em ratio×(F100%−F0%)))]. Dose-response curves were generated and inhibitory concentration (IC50) values were calculated using non-linear regression curve fit in the Dotmatics' Studies Software (Bishops Stortford, UK).

[4] = system: LL29 cells (primary human fibroblasts derived from IPF patients), α-smooth muscle actin; assay: Inhibition of fibrotic process: αSMA in TGF-β1-treated primary human fibroblasts from IPF patients (LL29 cells); type: cell-based; settings: Homo sapiens, Fibroblast; for EC50: 96 h, % αSMA-positive LL29 cells, TGF-β1 20 ng/mL, 4 days
Procedure, shortened: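 IPF-patient lung fibroblasts (LL29) were stimulated with TGF-β1 (20 ng/mL) in 1% FBS medium with compound (11-point 1:2 series, 0.1% DMSO) for 4 days at 37 °C. Fixed cells were immunostained for αSMA and imaged, excluding SYTOX-positive dead cells. The % αSMA-positive cells was normalized to TGF-β1/DMSO control wells.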

[5] = DYRK1A kinase, method text calls the value IC50

Sequence of GSK3β kinase (P49841 whole entry): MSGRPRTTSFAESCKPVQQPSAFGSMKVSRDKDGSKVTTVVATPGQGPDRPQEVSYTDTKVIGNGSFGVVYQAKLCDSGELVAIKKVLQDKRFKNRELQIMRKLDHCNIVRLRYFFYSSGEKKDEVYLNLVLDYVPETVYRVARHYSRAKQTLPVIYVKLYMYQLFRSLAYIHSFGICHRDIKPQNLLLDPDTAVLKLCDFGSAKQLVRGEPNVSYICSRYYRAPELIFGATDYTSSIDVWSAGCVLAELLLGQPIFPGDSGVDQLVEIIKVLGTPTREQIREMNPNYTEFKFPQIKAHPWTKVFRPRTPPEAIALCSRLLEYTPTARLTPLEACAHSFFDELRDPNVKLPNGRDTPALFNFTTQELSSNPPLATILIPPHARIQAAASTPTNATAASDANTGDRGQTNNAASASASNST

Structure (SMILES): Cc1ncc(-c2cc3cc(NC(=O)[C@H]4CC[C@H](N5CCOCC5)CC4)ncc3cc2F)o1 [Compound 55, trans-N-(7-Fluoro-6-(2-methyloxazol-5-yl)isoquinolin-3-yl)-4-morpholinocyclohexane-1-carboxamide]
EC50 [1]: 3700 nM
EC50 [2]: 178 nM
inhibition at 10 µM (IL-6): 18.3%
EC50 (IL-6): > 10000 nM
EC50 [3]: 1300 nM
EC50 (GSK3β kinase): 88 nM
EC50 (DYRK1A kinase; [5]): 6 nM
EC50 [4]: 678 nM

Structure (SMILES): Cc1cn2c(n1)CN(C(=O)Nc1cc3cc(-c4cnc(C)o4)ccc3cn1)CC2 [Compound 59, 2-Methyl-N-(6-(2-methyloxazol-5-yl)isoquinolin-3-yl)-5,6-dihydroimidazo [1,2-a]pyrazine-7(8H)-carboxamide]
EC50 [1]: 4100 nM
EC50 [2]: 35 nM
EC50 (IL-6): 129 nM
EC50 [3]: 140 nM
EC50 (GSK3β kinase): 15 nM
EC50 (DYRK1A kinase; [5]): 3 nM
EC50 [4]: 297 nM

Structure (SMILES): Cn1cc(-c2ccc3cnc(NC(=O)N4CCOCC4)cc3c2)cn1 [Compound 64, N-(6-(1-Methyl-1H-pyrazol-4-yl)isoquinolin-3-yl)morpholine-4-carboxamide]
EC50 [1]: 434 nM
EC50 [2]: 2900 nM
EC50 (IL-6): 4630 nM
EC50 [3]: 3530 nM
EC50 (GSK3β kinase): 530 nM
EC50 (DYRK1A kinase; [5]): 8 nM
EC50 [4]: 683 nM

Structure (SMILES): Cc1ncc(-c2ccc3cnc(NC(=O)[C@H]4CC[C@H](CN5CCOCC5)CC4)cc3c2)o1 [Compound 69, trans-N-(6-(2-methyloxazol-5-yl)isoquinolin-3-yl)-4-(morpholinomethyl)cyclohexane-1-carboxamide]
EC50 [1]: 927 nM
EC50 [2]: 516 nM
EC50 (IL-6): 1020 nM
EC50 [3]: 1700 nM
EC50 (GSK3β kinase): 70 nM
EC50 (DYRK1A kinase; [5]): 3 nM
EC50 [4]: 210 nM

Structure (SMILES): Cc1ncc(-c2ccc3cnc(NC(=O)[C@H]4CC[C@H](CN5CCN(C)CC5)CC4)cc3c2)o1 [Compound 70, trans-N-(6-(2-Methyloxazol-5-yl)isoquinolin-3-yl)-4-((4-methylpiperazin-1-yl)methyl)cyclohexane-1-carboxamide]
EC50 [1]: 1110 nM
EC50 [2]: 307 nM
EC50 (IL-6): 952 nM
EC50 [3]: 1720 nM
EC50 (GSK3β kinase): 73 nM
EC50 (DYRK1A kinase; [5]): 2 nM
EC50 [4]: 124 nM

Structure (SMILES): Cc1nnc(-c2ccc3cnc(NC(=O)N[C@H]4CCN(C)C[C@@H]4F)cc3c2)s1 [Compound 71, 1-((3S,4S)-3-Fluoro-1-methylpiperidin-4-yl)-3-(6-(5-methyl-1,3,4-thiadiazol-2-yl)isoquinolin-3-yl)urea]
inhibition at 10 µM [1]: 45.6%
EC50 [1]: > 10000 nM
EC50 [2]: 250 nM
EC50 (IL-6): 9370 nM
EC50 [3]: > 10000 nM
inhibition at 10 µM [3]: 46.7%
EC50 (GSK3β kinase): 14 nM
EC50 (DYRK1A kinase; [5]): 6 nM
EC50 [4]: 4660 nM

Structure (SMILES): [2H]c1c([2H])c(C(=O)Nc2cc3cc(-c4cncn4C)ccc3cn2)c([2H])c([2H])c1Cl [Compound 83, 4-Chloro-N-(6-(1-methyl-1H-imidazol-5-yl)isoquinolin-3-yl)benzamide-2,3,5,6-d4]
inhibition at 10 µM [1]: 29.7%
EC50 [1]: > 10000 nM
EC50 [2]: > 10000 nM
EC50 (IL-6): 1130 nM
EC50 [3]: 305 nM
EC50 (GSK3β kinase): 874 nM
EC50 (DYRK1A kinase): 2 nM
EC50 [4]: 483 nM

Structure (SMILES): [2H]C([2H])([2H])c1ccc(C(=O)Nc2cc3cc(-c4cncn4C)ccc3cn2)cc1 [Compound 84, 4-(Methyl-d3)-N-(6-(1-methyl-1H-imidazol-5-yl)isoquinolin-3-yl)benzamide]
inhibition at 10 µM [1]: 25.5%
EC50 [1]: > 10000 nM
EC50 [2]: 1400 nM
EC50 (IL-6): 1300 nM
EC50 [3]: 494 nM
EC50 (GSK3β kinase): 1050 nM
EC50 (DYRK1A kinase): 2 nM
EC50 [4]: 630 nM

More lines, main results first:

EC50 [1]: 5350 nM
EC50 [2]: 92 nM
EC50 (IL-6): 3370 nM
EC50 [3]: 6500 nM
EC50 (GSK3β kinase): 9 nM
EC50 (DYRK1A kinase; [5]): 4 nM
Structure (SMILES): Cn1cc(-c2cc(F)c3cnc(NC(=O)[C@H]4CC[C@H](N5CCOCC5)CC4)cc3c2)nn1 [Compound 56, trans-N-(8-Fluoro-6-(1-methyl-1H-1,2,3-triazol-4-yl)isoquinolin-3-yl)-4-morpholinocyclohexane-1-carboxamide]
EC50 [4]: 285 nM

EC50 [1]: > 10000 nM
EC50 [2]: 136 nM
EC50 (IL-6): > 10000 nM
EC50 [3]: 4110 nM
EC50 (GSK3β kinase): 16 nM
EC50 (DYRK1A kinase; [5]): 9 nM
Structure (SMILES): Cc1nnc(-c2cc(F)c3cnc(NC(=O)[C@H]4CC[C@H](N5CCOCC5)CC4)cc3c2)s1 [Compound 57, trans-N-(8-Fluoro-6-(5-methyl-1,3,4-thiadiazol-2-yl)isoquinolin-3-yl)-4-morpholinocyclohexane-1-carboxamide]
inhibition at 10 µM [1]: 40.1%
inhibition at 10 µM (IL-6): 6.1%
EC50 [4]: 1170 nM

EC50 [1]: 671 nM
EC50 [2]: 1100 nM
EC50 (IL-6): > 10000 nM
EC50 [3]: 4060 nM
EC50 (GSK3β kinase): 73 nM
EC50 (DYRK1A kinase; [5]): 7 nM
Structure (SMILES): Cn1cc(-c2ccc3cnc(NC(=O)N4CCOCC4)cc3c2)nn1 [Compound 60, N-(6-(1-Methyl-1H-1,2,3-triazol-4-yl)isoquinolin-3-yl)morpholine-4-carboxamide]
inhibition at 10 µM (IL-6): 5.7%
EC50 [4]: 4860 nM

EC50 [1]: 2640 nM
EC50 [2]: 1200 nM
EC50 (IL-6): > 10000 nM
EC50 [3]: 3640 nM
EC50 (GSK3β kinase): 68 nM
EC50 (DYRK1A kinase; [5]): 7 nM
Structure (SMILES): Cc1nnc(-c2ccc3cnc(NC(=O)N4CCN(C)CC4)cc3c2)s1 [Compound 62, 4-Methyl-N-(6-(5-methyl-1,3,4-thiadiazol-2-yl)isoquinolin-3-yl)piperazine-1-carboxamide]
inhibition at 10 µM (IL-6): 8.5%
EC50 [4]: 1230 nM

EC50 [1]: 657 nM
EC50 [2]: 3100 nM
EC50 (IL-6): 4800 nM
EC50 [3]: 2570 nM
EC50 (GSK3β kinase): 473 nM
EC50 (DYRK1A kinase; [5]): 17 nM
Structure (SMILES): CN(C)C1CCN(C(=O)Nc2cc3cc(-c4cnn(C)c4)ccc3cn2)CC1 [Compound 63, 4-(Dimethylamino)-N-(6-(1-methyl-1H-pyrazol-4-yl)isoquinolin-3-yl) piperidine-1-carboxamide]
EC50 [4]: 1280 nM

EC50 [1]: 725 nM
EC50 [2]: > 10000 nM
EC50 (IL-6): > 10000 nM
EC50 [3]: > 10000 nM
EC50 (GSK3β kinase): 2840 nM
EC50 (DYRK1A kinase; [5]): 70 nM
Structure (SMILES): CC(C)N1CCN(C(=O)Nc2cc3cc(-c4cnn(C)c4)ccc3cn2)CC1 [Compound 65, 4-isopropyl-N-(6-(1-methyl-1H-pyrazol-4-yl)isoquinolin-3-yl)piperazine-1-carboxamide]
inhibition at 10 µM (IL-6): 4.8%
inhibition at 10 µM [3]: 7.3%
EC50 [4]: 2350 nM

EC50 [1]: 1190 nM
EC50 [2]: 168 nM
EC50 (IL-6): 997 nM
EC50 [3]: 1220 nM
EC50 (GSK3β kinase): 53 nM
EC50 (DYRK1A kinase): 3 nM
Structure (SMILES): [2H]c1c(NC(=O)C2CCN(C)CC2)ncc2ccc(-c3cnn(C)c3)cc12 [Compound 66, 1-Methyl-N-(6-(1-methyl-1H-pyrazol-4-yl)isoquinolin-3-yl-4-d)piperidine-4-carboxamide]
EC50 [4]: 160 nM

EC50 [1]: 6950 nM
EC50 [2]: 948 nM
EC50 (IL-6): 4060 nM
EC50 [3]: > 10000 nM
EC50 (GSK3β kinase): 66 nM
EC50 (DYRK1A kinase): 7 nM
Structure (SMILES): [2H]c1c(NC(=O)CN2CCOCC2)ncc2ccc(-c3cnn(C)c3)cc12 [Compound 68, N-(6-(1-Methyl-1H-pyrazol-4-yl)isoquinolin-3-yl-4-d)-2-morpholinoacetamide]
inhibition at 10 µM [3]: 47.2%
EC50 [4]: 1520 nM

EC50 [1]: 3310 nM
EC50 [2]: 2600 nM
EC50 (IL-6): 1580 nM
EC50 [3]: 489 nM
EC50 (GSK3β kinase): > 10000 nM
EC50 (DYRK1A kinase): 3 nM
Structure (SMILES): [2H]C1([2H])N(c2cc(C(=O)Nc3cc4cc(-c5cnc(C)n5C)ccc4cn3)ccn2)C([2H])([2H])C([2H])([2H])C([2H])([2H])C1([2H])[2H] [Compound 72, N-(6-(1,2-Dimethyl-1H-imidazol-5-yl)isoquinolin-3-yl)-2-(piperidin-1-yl-d10)isonicotinamide]
EC50 [4]: 937 nM

EC50 [1]: 743 nM
EC50 [2]: > 10000 nM
EC50 (IL-6): 7640 nM
EC50 [3]: 1600 nM
EC50 (GSK3β kinase): 2580 nM
EC50 (DYRK1A kinase): 3 nM
Structure (SMILES): [2H]c1c([2H])c([2H])c(C(=O)Nc2cc3cc(-c4cncn4C)ccc3cn2)c(F)c1[2H] [Compound 80]
EC50 [4]: 2710 nM

EC50 [1]: > 10000 nM
EC50 [2]: 5900 nM
EC50 (IL-6): > 10000 nM
EC50 [3]: 3310 nM
EC50 (GSK3β kinase): 1510 nM
EC50 (DYRK1A kinase): 3 nM
Structure (SMILES): [2H]c1c([2H])c([2H])c(C(=O)Nc2cc3cc(-c4cncn4C)ccc3cn2)c(Cl)c1[2H] [Compound 82]
inhibition at 10 µM [1]: 29.6%
inhibition at 10 µM (IL-6): 47.6%
EC50 [4]: > 10000 nM
inhibition at 10 µM ([4]; read-out: percent inhibition at 10 μM): 31.2%
